Experimental data published in US9751842B2, “Phthalazine derivatives” (Merck Patent GmbH, priority 2013, dated 2017).
pIC50: −log10 of the molar value.

Key:
[1] = target: T1, His-tagged Parp-1 (Homo sapiens, UniProt P09874); assay: PARP-1 autoparsylation HTRF assay; format: biochemical; settings: 150 min at 23° C
T1 construct: purchased Enzo Life Sciences GmbH, Lörrach, Germany
Excerpt: Description of the PARP1 Assay
Biochemical Activity Testing of PARP-1: Autoparsylation Assay
The autoparsylation assay is run in two steps: the enzymatic reaction in which His-tagged Parp-1 transfers biotinylated ADP-ribose/ADP-ribose to itself from biotinylated NAD/NAD as co-substrate and the detection reaction where a time resolved FRET between cryptate labelled anti-His antibody bound to the His tag of the enzyme and Xlent® labelled-streptavidin bound the biotin parsylation residue is analysed. The autoparsylation activity is detectable directly via the increase in HTRF signal.
The autoparsylation assay is performed as 384-well HTRF® (Cisbio, Codolet, France) assay format in Greiner low volume nb 384-well microtiter plates. 35 nM His-tagged Parp-1 (human, recombinant, Enzo Life Sciences GmbH, Lörrach, Germany) and a mixture of 125 nM bio-NAD (Biolog, Life science Inst., Bremen, Germany) and 800 nM NAD as co-substrate are incubated in a total volume of 6 μl (100 mM Tris/HCl, 4 mM Mg-chloride, 0.01% IGEPAL® CA630, 1 mM DTT, 0.5% DMSO, pH 8, 13 ng/μl activated DNA (BPS Bioscience, San Diego, US)) in the absence or presence of the test compound (10 dilution concentrations) for 150 min at 23° C. The reaction is stopped by the addition of 4 μl of the Stop/detection solution (70 nM SA-Xlent® (Cisbio, Codolet, France), 2.5 nM Anti-His-K® (Eu-labelled anti-His, Cisbio, Codolet, France) in 50 mM HEPES, 400 mM KF, 0.1% BSA, 20 mM EDTA, pH 7.0). After 1 h incubation at room temperature the HTRF is measured with an Envision multimode reader (Perkin Elmer LAS Germany GmbH) at excitation wavelength 340 nm (laser mode) and emission wavelengths 615 nm and 665 nm. The ratio of the emission signals is determined. The full value used is the inhibitor-free reaction. The pharmacological zero value used is Olaparib (LClabs, Woburn, US) in a final concentration of 1 μM. The inhibitory values (IC50) are determined using either the program Symyx Assay Explorer® or Condosseo® from GeneData.

[2] = target: T2, GST-tagged Tnks-2 (873-1166 aa) (Homo sapiens, UniProt Q9H2K2); assay: TNKS2 activity ELISA (autoparsylation); format: biochemical; settings: activity ELISA, 1 hour at 30° C; read-out: IC50 TNKS2 ELISA
T2 construct: GST-tagged Tnks-2 (873-1166 aa, prepared in-house); made in house
T2 sequence (Q9H2K2 873-1166): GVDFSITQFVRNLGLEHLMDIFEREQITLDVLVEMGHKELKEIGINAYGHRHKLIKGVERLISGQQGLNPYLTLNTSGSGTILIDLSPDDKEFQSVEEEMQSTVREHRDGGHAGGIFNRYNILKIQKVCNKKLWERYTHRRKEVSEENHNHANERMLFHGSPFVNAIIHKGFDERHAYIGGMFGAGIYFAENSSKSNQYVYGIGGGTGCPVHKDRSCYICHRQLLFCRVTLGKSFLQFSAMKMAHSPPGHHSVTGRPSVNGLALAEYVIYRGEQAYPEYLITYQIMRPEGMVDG
Method: Description of the TNKS1 and TNKS2 ELISA Assay
Biochemical Activity Testing of TNKS 1 and 2: Activity ELISA (Autoparsylation Assay)
For analysis of autoparsylation activity of TNKS 1 and 2 an activity ELISA is performed: In the first step GST tagged TNKS is captured on a Glutathione coated plate. Then the activity assay with biotinylated NAD is performed in the absence/presence of the compounds. During the enzymatic reaction GST tagged TNKS transfers biotinylated ADP-ribose to itself from biotinylated NAD as co-substrate. For the detection streptavidin-HRP conjugate is added that binds to the biotinylated TNKS and is thereby captured to the plates. The amount of biotinylated resp. autoparsylated TNKS is detected with a luminescence substrate for HRP. The level of the luminescence signal correlates directly with the amount of autoparsylated TNKS and therefore with activity of TNKS.
The activity ELISA is performed in 384 well Glutathione coated microtiter plates (Express capture Glutathione coated plate, Biocat, Heidelberg, Germany). The plates are pre-equilibrated with PBS. Then the plates are incubated with 50 μl 20 ng/well GST-tagged Tnks-1 (1023-1327 aa, prepared in-house), respectively GST-tagged Tnks-2 (873-1166 aa, prepared in-house) in assay buffer (50 mM HEPES, 4 mM Mg-chloride, 0.05% Pluronic F-68, 2 mM DTT, pH 7.7) overnight at 4° C. The plates are washed 3 times with PBS-Tween-20. The wells are blocked by incubation at room temperature for 20 minutes with 50 μl blocking buffer (PBS, 0.05% Tween-20, 0.5% BSA). Afterwards the plates are washed 3 times with PBS-Tween-20. The enzymatic reaction is performed in 50 μl reaction solution (50 mM HEPES, 4 mM Mg-chloride, 0.05% Pluronic F-68, 1.4 mM DTT, 0.5% DMSO, pH 7.7) with 10 μM bio-NAD (Biolog, Life science Inst., Bremen, Germany) as co-substrate in the absence or presence of the test compound (10 dilution concentrations) for 1 hour at 30° C. The reaction is stopped by 3 times washing with PBS-Tween-20. For the detection 50 μl of 20 ng/μl Streptavidin, HRP conjugate (MoBiTec, Göttingen, Germany) in PBS/0.05% Tween-20/0.01% BSA are added and the plates are incubated for 30 minutes at room temperature. After three times washing with PBS-Tween-20 50 μl of SuperSignal ELISA Femto Maximum sensitivity substrate solution (ThermoFisherScientific (Pierce), Bonn, Germany) are added. Following a 1 minute incubation at room temperature luminescence signals are measured with an Envision multimode reader (Perkin Elmer LAS Germany GmbH) at 700 nm. The full value used is the inhibitor-free reaction. The pharmacological zero value used is XAV-939 (Tocris) in a final concentration of 5 μM. The inhibitory values (IC50) are determined using either the program Symyx Assay Explorer® or Condosseo® from GeneData.

T1 sequence (P09874 whole entry): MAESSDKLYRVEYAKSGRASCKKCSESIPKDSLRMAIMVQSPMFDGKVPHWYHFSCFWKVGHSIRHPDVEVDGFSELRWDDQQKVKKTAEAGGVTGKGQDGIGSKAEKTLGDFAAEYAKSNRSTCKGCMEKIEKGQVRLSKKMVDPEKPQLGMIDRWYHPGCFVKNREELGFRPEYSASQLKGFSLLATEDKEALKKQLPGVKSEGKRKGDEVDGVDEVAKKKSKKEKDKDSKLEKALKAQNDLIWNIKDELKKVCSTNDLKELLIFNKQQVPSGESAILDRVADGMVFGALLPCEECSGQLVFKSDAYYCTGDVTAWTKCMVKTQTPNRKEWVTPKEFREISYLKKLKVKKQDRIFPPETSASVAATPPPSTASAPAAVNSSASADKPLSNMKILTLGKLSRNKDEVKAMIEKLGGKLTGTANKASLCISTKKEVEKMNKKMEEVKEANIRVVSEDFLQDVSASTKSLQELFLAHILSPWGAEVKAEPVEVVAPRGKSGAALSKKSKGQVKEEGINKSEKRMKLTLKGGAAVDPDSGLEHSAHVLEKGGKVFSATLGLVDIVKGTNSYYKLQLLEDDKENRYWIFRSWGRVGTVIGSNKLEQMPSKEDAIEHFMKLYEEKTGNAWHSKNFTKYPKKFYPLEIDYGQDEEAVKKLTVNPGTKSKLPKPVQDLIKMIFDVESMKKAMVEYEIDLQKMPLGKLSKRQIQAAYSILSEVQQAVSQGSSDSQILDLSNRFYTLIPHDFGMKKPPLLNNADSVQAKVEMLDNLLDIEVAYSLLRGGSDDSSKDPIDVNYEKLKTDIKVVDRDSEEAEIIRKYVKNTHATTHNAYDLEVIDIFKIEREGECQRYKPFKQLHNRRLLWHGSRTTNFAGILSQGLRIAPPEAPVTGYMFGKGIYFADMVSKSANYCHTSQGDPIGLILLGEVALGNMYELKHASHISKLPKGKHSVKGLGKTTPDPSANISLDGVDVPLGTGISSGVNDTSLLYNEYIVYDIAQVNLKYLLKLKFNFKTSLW

Structure (SMILES)	pIC50 [1]	pIC50 [2]
O=C(Cc1ccccc1)Nc1nncc2ccccc12 [Compound A1, 2-phenyl-N-phthalazin-1-yl-acetamide]	4.30 to 5.52	5.52 to 6.52
COc1cccc(CC(=O)Nc2nncc3ccccc23)c1 [Compound A2, 2-(3-methoxyphenyl)-N-phthalazin-1-yl-acetamide]	4.30 to 5.52	5.52 to 6.52
COc1ccc(CC(=O)Nc2nncc3ccccc23)cc1 [Compound A3, 2-(4-methoxyphenyl)-N-phthalazin-1-yl-acetamide]	4.30 to 5.52	> 6.52
CCOc1ccc(CC(=O)Nc2nncc3ccccc23)cc1 [Compound A4, 2-(4-ethoxyphenyl)-N-phthalazin-1-yl-acetamide]	4.30 to 5.52	> 6.52
O=C(CCC1CCCC1)Nc1nncc2ccccc12 [Compound A15, 3-cyclopentyl-N-phthalazin-1-yl-propionamide]	4.30 to 5.52	> 6.52
O=C(CCc1ccccc1Cl)Nc1nncc2ccccc12 [Compound A16, 3-(2-chloro-phenyl)-N-phthalazin-1-yl-propionamide]	4.30 to 5.52	> 6.52
Cc1cccc2cnnc(NC(=O)Cc3ccccc3)c12 [Compound A18, N-(8-methyl-phthalazin-1-yl)-2-phenyl-acetamide]	5.52 to 6.52	> 6.52
COc1ccc(CC(=O)Nc2nncc3cccc(C)c23)cc1 [Compound A20, 2-(4-methoxy-phenyl)-N-(8-methyl-phthalazin-1-yl)-acetamide]	5.52 to 6.52	> 6.52
